Measurements published in patent publication US20190315806A1, “POLYMYXIN DERIVATIVE, PREPARATION METHOD AND APPLICATION THEREOF” (priority 2016, published 2019).
Converted amounts (≈) assume the structure as drawn. Where a SMILES comes first, the peptide text is derived from it. Bridges are numbered along the chain shown (N, C = ends). [ ]: non-standard residue; d: D form. The star is where a group is joined. Heptanoyl(6-Me) = CC(C)CCCCC(=O)*; X2 = CC[C@H](C)CCCCC(=O)*; dDab = NCC[C@@H](N)C(=O)O; Dab = NCC[C@H](N)C(=O)O

Legend:
Assay type in all cases: cell-based
[1] = test system: Acinetobacter baumannii ATCC 19606; details: ATCC 19606
How it was run: (§1)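 Read-out was the lowest drug level in agar preventing visible colony growth after 18 to 24 hours at 35° C. Plates held twofold dilutions (0.03–128 μg/mL final), prepared following CLSI. Bacteria were inoculated at 10^4 CFU/dot with a multipoint inoculator.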

[2] = test system: Escherichia coli ATCC 25922; details: ATCC 25922
How it was run: as §1

[3] = test system: Pseudomonas aeruginosa ATCC 27853; details: ATCC 27853
How it was run: as §1

[4] = test system: Staphylococcus epidermidis ATCC 12228; details: ATCC 12228
How it was run: as §1

[5] = test system: Klebsiella pneumoniae ATCC BAA-2146 (NDM-1); assay: Antibacterial activity, MIC by dish double dilution method; details: ATCC BAA-2146
How it was run: as §1

[6] = Nephrotoxicity test, renal cytotoxicity by MTT method; details: African green monkey
How it was run: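 Vero cells, adhered 24 h, exposed to a compound concentration gradient for 72 h at 37 °C, 5% CO2. Viability by MTT (0.5 mg/ml, 3 h), DMSO-solubilised, A570 nm, normalised to background and untreated control. IC50 from inhibition curve, mean of 3 wells per point.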

## CC(C)CCCCC(=O)N[C@@H](CCN)C(=O)N[C@H](C(=O)N[C@H](CO)C(=O)N[C@H]1CCNC(=O)[C@H]([C@@H](C)O)NC(=O)[C@H](CCN)NC(=O)[C@H](CCN)NC(=O)[C@H]([C@@H](C)O)NC(=O)[C@@H](Cc2ccccc2)NC(=O)[C@H](CCN)NC1=O)[C@@H](C)O [Compound 116, 6-methylheptanoyl-Dab-Thr-D-Ser-ring(4-10)[Dab-Dab-D-Phe-Thr-Dab-Dab-Thr]] ({Heptanoyl(6-Me)}-[Dab]T[dS][Dab][Dab][dF]T[Dab][Dab]T; lactam 4-C)
[1]
  MIC A. baumannii ATCC 19606: 0.25 µg/mL (≈ 0.215 µM)
[2]
  MIC E. coli ATCC 25922: 0.25 µg/mL (≈ 0.215 µM)
[3]
  MIC P. aeruginosa ATCC 27853: 2 µg/mL (≈ 1.72 µM)
[4]
  MIC S. epidermidis ATCC 12228: >128 µg/mL
[5]
  MIC K. pneumoniae ATCC BAA-2146 (NDM-1): 1 µg/mL (≈ 0.859 µM)
[6]
  IC50 at 72 h: > 500 µg/mL

## CC[C@H](C)CCCCC(=O)N[C@@H](CCN)C(=O)N[C@H](C(=O)N[C@@H](CCN)C(=O)N[C@H]1CCNC(=O)[C@H](CC(C)C)NC(=O)[C@H](CCN)NC(=O)[C@H](CCN)NC(=O)[C@H](CC(C)C)NC(=O)[C@@H](Cc2ccccc2)NC(=O)[C@H](CCN)NC1=O)[C@@H](C)O [Compound 127, (S)-6-methyloctanoyl-Dab-Thr-Dab-ring(4-10)[Dab-Dab-D-Phe-Lue-Dab-Dab-Lue]] (X2-[Dab]T[Dab][Dab][Dab][dF]L[Dab][Dab]L; lactam 4-C)
[1]
  MIC A. baumannii ATCC 19606: 2 µg/mL (≈ 1.65 µM)
[2]
  MIC E. coli ATCC 25922: 4 µg/mL (≈ 3.29 µM)
[3]
  MIC P. aeruginosa ATCC 27853: 4 µg/mL (≈ 3.29 µM)
[4]
  MIC S. epidermidis ATCC 12228: 8 µg/mL (≈ 6.58 µM)
[5]
  MIC K. pneumoniae ATCC BAA-2146 (NDM-1): 4 µg/mL (≈ 3.29 µM)
[6]
  IC50 at 72 h: 17.2 ± 2.16 µg/mL (≈ 14.1 µM)

## CC(C)CCCCC(=O)N[C@@H](CCN)C(=O)N[C@H](C(=O)N[C@@H](CCN)C(=O)N[C@H]1CCNC(=O)[C@H](CC(C)C)NC(=O)[C@H](CCN)NC(=O)[C@H](CCN)NC(=O)[C@H](CC(C)C)NC(=O)[C@@H](Cc2ccccc2)NC(=O)[C@H](CCN)NC1=O)[C@@H](C)O [Compound 128, 6-methylheptanoyl-Dab-Thr-Dab-ring(4-10)[Dab-Dab-D-Phe-Lue-Dab-Dab-Lue]] ({Heptanoyl(6-Me)}-[Dab]T[Dab][Dab][Dab][dF]L[Dab][Dab]L; lactam 4-C)
[1]
  MIC A. baumannii ATCC 19606: 4 µg/mL (≈ 3.33 µM)
[2]
  MIC E. coli ATCC 25922: 4 µg/mL (≈ 3.33 µM)
[3]
  MIC P. aeruginosa ATCC 27853: 4 µg/mL (≈ 3.33 µM)
[4]
  MIC S. epidermidis ATCC 12228: 16 µg/mL (≈ 13.3 µM)
[5]
  MIC K. pneumoniae ATCC BAA-2146 (NDM-1): 4 µg/mL (≈ 3.33 µM)
[6]
  IC50 at 72 h: 30.1 ± 2.59 µg/mL (≈ 25 µM)

## CC[C@H](C)CCCCC(=O)N[C@@H](CCN)C(=O)N[C@H](C(=O)N[C@H](CCN)C(=O)N[C@H]1CCNC(=O)[C@H]([C@@H](C)O)NC(=O)[C@H](CCN)NC(=O)[C@H](CCN)NC(=O)[C@H]([C@@H](C)O)NC(=O)[C@@H](Cc2ccccc2)NC(=O)[C@H](CCN)NC1=O)[C@@H](C)O [Compound 143, (S)-6-methyloctanoyl-Dab-Thr-D-Dab-ring(4-10)[Dab-Dab-D-Phe-Thr-Dab-Dab-Thr]] (X2-[Dab]T[dDab][Dab][Dab][dF]T[Dab][Dab]T; lactam 4-C)
[1]
  MIC A. baumannii ATCC 19606: 1 µg/mL (≈ 0.839 µM)
[2]
  MIC E. coli ATCC 25922: 0.5 µg/mL (≈ 0.42 µM)
[3]
  MIC P. aeruginosa ATCC 27853: 1 µg/mL (≈ 0.839 µM)
[4]
  MIC S. epidermidis ATCC 12228: >128 µg/mL
[5]
  MIC K. pneumoniae ATCC BAA-2146 (NDM-1): 1 µg/mL (≈ 0.839 µM)
[6]
  IC50 at 72 h: 142 ± 15.2 µg/mL (≈ 119 µM)
